Experimental data from US8304410B2, “Pyrrole compounds as inhibitors of mycobacteria, synthesis thereof and intermediates thereto” (priority 2007, dated 2012).
Converted amounts (≈) assume the structure as drawn.

How the values were obtained:
Format in all cases: cell-based
[1] = tested on: M. tuberculosis INH-R; experiment: microbe, parasite or virus in culture; settings: for MIC: Mycobacterium tuberculosis, read-out: M. tuberculosis INH-R MIC; for M. tuberculosis INH-R MIC: isoniazid-resistant mycobacteria
[2] = tested on: M. tuberculosis RMP-R; experiment: microbe, parasite or virus in culture; settings: for MIC: Mycobacterium tuberculosis, read-out: M. tuberculosis RMP-R (Rif-R) MIC; for M. tuberculosis RMP-R (Rif-R) MIC: rifampicin-resistant mycobacteria
[3] = tested on: M. tuberculosis PZA-R; settings: pirazinamide-resistant mycobacteria
[4] = tested on: M. tuberculosis SM-R; settings: streptomycin-resistant mycobacteria

| Structure (SMILES) | MIC [1] [µg/mL] | MIC [2] [µg/mL] | M. tuberculosis INH-R MIC [1] [µg/mL] | M. tuberculosis RMP-R (Rif-R) MIC [2] [µg/mL] | PZA-R MIC [3] [µg/mL] | SM-R MIC [4] [µg/mL] |
| --- | --- | --- | --- | --- | --- | --- |
| [H]/N=C(/N)N[C@H]1[C@H](O)[C@@H](O)[C@H](O[C@@H]2O[C@@H](C)[C@](O)(C=O)[C@H]2O[C@@H]2O[C@@H](CO)[C@H](O)[C@@H](O)[C@@H]2NC)[C@@H](N/C(N)=N\[H])[C@@H]1O [Streptomycin, SM, Streptomycin, reference compound] | 0.5 (≈ 0.86 µM) | 0.5 (≈ 0.86 µM) |  |  |  |  |
| CSc1ccc(-c2cc(CN3CCSCC3)c(C)n2-c2ccc(C)cc2)cc1 [Compound 3b] |  |  | 16 | 0.25 | 0.5 | 0.25 |
| CSc1ccc(-c2cc(CN3CCSCC3)c(C)n2-c2ccc(C(C)C)cc2)cc1 [Compound 3e] |  |  | 16 | 1 | 1 | 0.125 |
| CSc1ccc(-c2cc(CN3CCOCC3)c(C)n2-c2ccc(F)cc2)cc1 [Compound 3h] |  |  | >16 | 2 | 0.5 | 0.25 |
| CCCc1ccc(-n2c(-c3ccc(SC)cc3)cc(CN3CCSCC3)c2C)cc1 [Compound 3d] |  |  | 8 | 0.5 | 0.5 | 0.25 |
| CO[C@H]1/C=C/O[C@@]2(C)Oc3c(C)c(O)c4c(O)c(c(/C=N/N5CCN(C)CC5)c(O)c4c3C2=O)NC(=O)/C(C)=C\C=C\[C@H](C)[C@H](O)[C@@H](C)[C@@H](O)[C@@H](C)[C@H](OC(C)=O)[C@@H]1C [Rifampicin, RIF, Rifampicin] | 0.8 (≈ 0.972 µM) | > 64 |  |  |  |  |
| CSc1ccc(-c2cc(CN3CCSCC3)c(C)n2-c2ccc(F)cc2)cc1 [Compound 3a, N-(4-fluorophenyl)-2-methyl-3-thiomorpholinomethyl-5-(4-methylsulfanylphenyl)pyrrole] | > 16 | 0.25 (≈ 0.606 µM) | >16 |  |  |  |
| CCc1ccc(-n2c(-c3ccc(SC)cc3)cc(CN3CCSCC3)c2C)cc1 [Compound 3c] |  |  | 16 | 0.25 | 0.25 | 0.25 |
| NNC(=O)c1ccncc1 [Isoniazid, INH, Isoniazid, reference compound] | > 64 | 0.25 (≈ 1.82 µM) |  |  |  |  |
| CSc1ccc(-c2cc(CN3CCN(C)CC3)c(C)n2-c2ccc(F)cc2)cc1 [Compound 3f] |  |  | 8 | 2 | 2 | 1 |
